Assays:
[1] = Solubility of CS in water; assay type: physicochemical; conditions: room temperature, sterile, distilled water
From the text: In accordance with the present invention, the unit dose of CS administered to the patient is at least 250 mgs. More desirably, the unit dose of CS is at least 300 mgs. Preferably, the unit dose is at least 350 mgs. More preferably, the unit dose is at least 400 mgs. The upper end of the acceptable unit dose is capped, in theory, only by the solubility of the given type of CS in the chosen aqueous vehicle, and by the volume of that vehicle used in therapy. At room temperature and in sterile, distilled water, the solubility of CS approaches 50%. Thus, the upper limit of the CS unit dose can be 500 mgs/mL of vehicle. In accordance with the present invention, the unit dose of CS is desirably formulated in a solution volume that is sufficient to expose the bladder surface to be treated, and is at least tolerable and more desirably comfortable for the patient. The upper limit for such volumes lies below the volume causing hydrodistention, which is about 250 mL in some patients. For adult patients, solution volumes are suitably from about 5 mL or 10 mL up to about 100 mL, e.g. up to about 75 mL, and preferably up to about 50 mL. In a specific embodiment of the invention, a solution volume of about 40 mL is utilized. Accordingly, the upper limit of the unit dose of CS administrable to the patient at this volume can approach 20,000 mgs.

[2] = test system: patients diagnosed with cystitis; conditions: 80 mgs and up to 200 mgs as a 40 mL instillation; cited from earlier work

chondroitin sulfate [CS]
solubility [1]: about 50%
relief of symptoms including frequency, pain and urgency [2]: provided relief from at least one symptom

— patent US7772210B2, “Cystitis treatment with high dose chondroitin sulfate” (Stellar Pharmaceuticals Inc., priority 2004, dated 2010)
